Laboratory results published in publication PMC7164518 (Science (New York, N.y.), 2020).
≈ marks a conversion by molar mass, not a printed value. Read-outs that look alike come from different tables or passages of the source.

How the values were obtained:
[1] = test system: enteroviruses; conditions: various cell lines; cited from earlier work
[2] = Pharmacokinetics in CD-1 mice, subcutaneous route; type: in vivo; conditions: for half-life / Cmax / MRT: plasma
[3] = In vitro kinetic plasma solubility; type: physicochemical; conditions: plasma or biological fluid, kinetic from dmso stock
[4] = Binding to mouse plasma protein; type: in vitro ADME
[5] = test system: SARS-CoV; conditions: various cell lines; cited from earlier work
[6] = test system: Middle East respiratory syndrome–coronavirus (MERS-CoV); conditions: Huh7 cells; read-out: EC50 against MERS-CoV; cited from earlier work
[7] = Thermodynamic solubility; type: physicochemical; conditions: thermodynamic from solid
[8] = human microsomes
[9] = in vitro; conditions: human, microsomes
[10] = in vitro; conditions: mouse, microsomes
[11] = biological target: MERS-CoV M^pro (Middle East respiratory syndrome-related coronavirus, UniProt K9N7C7); experiment: biochemical
[12] = Binding to human plasma proteins; type: in vitro ADME
[13] = test system: SARS-CoV replicon; experiment: microbe, parasite or virus in culture; type: cell-based; conditions: Severe acute respiratory syndrome coronavirus, read-out: EC50 inhibition of RNA replication in SARS-CoV replicon
[14] = test system: SARS-CoV-2; experiment: SARS-CoV-2 replication in human Calu-3 lung cells (viral RNA by qPCR); type: cell-based; conditions: MOI 0.05
Method: (A) Calu-3 cells were infected with SARS-CoV-2 using a multiplicity of infection (MOI) of 0.05. […] DMSO was used as vehicle control (black bar). Total RNA was isolated from cell lysates, and viral RNA content was analyzed by quantitative polymerase chain reaction. Data are means ± SD of two biological experiments with two technical replicates each.

[15] = in vivo; conditions: CD-1, mouse, lung, inhaled, 3 mg kg^−1
[16] = biological target: SARS-CoV-2 M^pro (Severe acute respiratory syndrome coronavirus 2, UniProt P0DTD1); experiment: Inhibition of purified recombinant SARS-CoV-2 Mpro; type: biochemical; conditions: 14b relative to 13b

MERS-CoV M^pro, sequence (K9N7C7 3248-3553 limits assumed): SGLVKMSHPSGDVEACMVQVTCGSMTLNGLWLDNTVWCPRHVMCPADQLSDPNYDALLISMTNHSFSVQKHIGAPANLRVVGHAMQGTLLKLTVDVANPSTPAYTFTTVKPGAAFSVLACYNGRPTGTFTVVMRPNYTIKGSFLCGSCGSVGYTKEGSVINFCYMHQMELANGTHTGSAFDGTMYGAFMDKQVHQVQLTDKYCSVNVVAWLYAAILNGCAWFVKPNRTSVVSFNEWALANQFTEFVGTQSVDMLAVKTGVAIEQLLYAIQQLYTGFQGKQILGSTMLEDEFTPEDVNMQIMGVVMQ

## O=C(/C=C/c1ccccc1)N[C@@H](CC1CCCCC1)C(=O)N[C@@H](C[C@@H]1CCNC1=O)C(=O)C(=O)NCc1ccccc1 [Compound 11r, reference compound]
[1]
  EC50 values against a whole range of enteroviruses: low-μM
[2]; CD-1, mouse, mice
  half-life: 0.3 h
[3]
  solubility kinetic: 6 µM (≈ 3.44 µg/mL)
[4]
  binding to mouse plasma protein: 99%
[5]
  EC50 values against SARS-CoV: low-μM
[6]
  EC50: 0.0004 µM
[7]
  solubility thermodynamic: 41 µM (≈ 23.5 µg/mL)

## CC(C)(C)OC(=O)Nc1cccn([C@@H](CC2CCCCC2)C(=O)N[C@@H](C[C@@H]2CCNC2=O)C(=O)C(=O)NC2CC2)c1=O [Compound 13a, tert-butyl (1-((S)-3-cyclohexyl-1-(((S)-4-(cyclopropylamino)-3,4-dioxo-1-((S)-2-oxopyrrolidin-3-yl)butan-2-yl)amino)-1-oxopropan-2-yl)-2-oxo-1,2-dihydropyridin-3-yl)carbamate]
[8]
  residual compound remaining metabolically stable after 30 min: ~60%
[2]; CD-1, mouse, mice
  half-life: 1 h
[2]; CD-1 mice, 20 mg/kg
  time compound stayed in plasma: up to 4 hours
  time compound was excreted via urine: up to 24 hours
[2]; mouse, bronchio-alveolar lavage fluid (BALF), sc, CD-1 mice, 20 mg/kg, read-out: concentration in bronchio-alveolar lavage fluid (BALF) at 24 hours
  concentration at 24 hours: 52.7 ng/mL
[2]; mouse, lung, sc, CD-1 mice, 20 mg/kg, read-out: concentration in lung tissue at 24 hours
  concentration at 24 hours: 135 ng/g
[2]; mouse, sc, CD-1 mice, 20 mg/kg, read-out: maximum plasma concentration (Cmax)
  Cmax: 334 ng/mL
[2]; mouse, sc, CD-1 mice, 20 mg/kg, read-out: mean residence time
  MRT: ~1.6 h
[9]
  microsomal CLint: 21 µL/min/mg
[3]
  solubility kinetic: 112 µM (≈ 65.6 µg/mL)
[4]
  binding to mouse plasma protein: 97%
[10]
  microsomal CLint: 32 µL/min/mg
[7]
  solubility thermodynamic: 530 µM (≈ 310 µg/mL)

## CC(C)(C)OC(=O)Nc1cccn([C@@H](CC2CC2)C(=O)N[C@@H](C[C@@H]2CCNC2=O)C(=O)C(=O)NCc2ccccc2)c1=O [Compound 13b]
[11]
  IC50: 0.58 ± 0.22 µM
[12]
  binding to human plasma proteins: 90%
[13]
  EC50: 1.75 ± 0.25 µM
[2]; 13b 3 mg kg^−1 vs 13a 20 mg/kg
  Cmax as percent of the Cmax detected for 13a: around 37%
[2]; mouse, lung, sc, CD-1 mice, 3 mg kg^−1, 4 hours, read-out: lung tissue level after 4 hours
  concentration at 4 hours: ~13 ng/g
[2]; mouse, sc, CD-1 mice, 3 mg kg^−1
  half-life: 1.8 h
[2]; mouse, sc, CD-1 mice, 3 mg kg^−1, read-out: maximum plasma concentration (Cmax)
  Cmax: 126 ng/mL
[2]; mouse, sc, CD-1 mice, 3 mg kg^−1, read-out: mean residence time
  MRT: 2.7 h
[14]; Severe acute respiratory syndrome coronavirus 2, Calu-3, viral RNA by qPCR, read-out: EC50 in human Calu-3 cells infected with SARS-CoV-2
  EC50: 4 to 5 µM
[15]
  concentration at 24 hours: 33 ng/g

## Nc1cccn([C@@H](CC2CC2)C(=O)N[C@@H](C[C@@H]2CCNC2=O)C(=O)C(=O)NCc2ccccc2)c1=O [Compound 14b]
[14]; 5, 10, 20 or 40 μM
  activity in human Calu-3 cells infected with SARS-CoV-2: almost inactive
[16]
  weakening of inhibitory potency on removing the Boc group (factor): ~ 2
